Experimental data taken from patent US20250134953A1, “COMPOSITIONS FOR TREATING AUTOIMMUNE ARTHRITIS” (DEVINTEC SAGL, priority 2021, published 2025).

Columns and labels:
[1] = test system: collagen antibody-induced arthritis (CAIA) mice; assay: Radiological score (X-ray) of ankle joints in CAIA mice; type: in vivo, Male BALB/c mice; conditions: oral gavage, score 0-3
Protocol: (§1) Each compound (140 mg of pea protein; 100 mg of Acacia gum; and 100 mg of alpha-Glucooligosaccharide) were administered in a PBS solution via oral gavage daily, from day 0 to day 14 in mice of Group A, and from day 4 to day 14 in mice of Group B. Prednisolone was administered via oral gavage at the doses of 0.05, 0.2 and 1 mg/kg as disclosed in Oosten, L., Helsen, M., Saxne, T. et al. “Synergistic protection against cartilage destruction by low dose prednisolone and interleukin-10 in established murine collagen arthritis”. Inflamm. Res. 48, 48-55, 1999.
(§2) The animals were divided into the following two groups: • Group A: the animals were administered with the therapeutic compounds from day 0 to day 14. • Group B: the animals were administered with the therapeutic compounds from day 4 to day 14.
(§3) Sham+vehicle (negative control) (n=3) • 2. Sham+prednisolone 0.05 mg/kg (n=3) • 3. […] Sham+prednisolone 0.2 mg/kg (n=3) • 5. […] Sham+prednisolone 1 mg/kg (n=3) • 7. […] Sham+MD (n=3) • 9. CAIA+vehicle (positive control) (n=6) • 10. CAIA+prednisolone 0.05 mg/kg (n=6) • 11. […] CAIA+prednisolone 0.2 mg/kg (n=6) • 13. […] CAIA+prednisolone 1 mg/kg (n=6) • 15. […] CAIA+140 mg Pea Protein (n=6) • 18. […] CAIA+200 mg Pea Protein (n=6) • 20. […] CAIA+70 mg Pea Protein (n=6)
Radiological analysis was carried out using X-ray technique, and radio-logical scoring (level: 0=Normal; 1=Slight; 2=Moderate and 3=Severe) was calculated considering different parameters such as periosteal reaction/hypertrophy, bone erosion, soft tissue swelling, narrowed joint space and osteoporosis in the ankle-joints, as described in Balkrishna A, et al., “Herbo-mineral formulation ‘Ashwashila’ attenuates rheumatoid arthritis symptoms in collagen-antibody-induced arthritis (CAIA) mice model” Sci Rep., 2019; vol. 9(1); pp. 8025.

[2] = test system: collagen antibody-induced arthritis (CAIA) mice; assay: Histological score of ankle joints (hind legs) in CAIA mice; type: in vivo, Male BALB/c mice; conditions: oral gavage
Protocol: as §1, §2, §3
Histological analysis was carried out as previously described (Balkrishna A, et al., supra; Mengdi et al., “A novel dexamethasone-loaded liposome alleviates rheumatoid arthritis in rats”; International Journal of Pharmaceutics; 2018; vol. 540(1-2); pp. 57-64) and indicating score analysis of the RA disease-associated lesions such as the moderately enlarged synovial membrane, hyperplastic synovium, the presence of inflammation and bone and cartilage erosion on a 0-4 scale as follows: 0=normal; 1=mild, slight swelling; 2=moderate swelling; 3=severe swelling; 4=maximally inflamed; […].
Histopathological analysis of the CAIA mice hind legs was performed following fourteen days of treatment. Ankle-joints analysis of the CAIA mice was performed indicating the development of arthritis disease-associated lesions such as the moderately enlarged synovial membrane, hyperplastic synovium, increased synovial vascularity, the presence of inflammation and, bone and cartilage erosion.

[3] = test system: IL-17, IL-6, IL-23, TNF-α and IL-1β; conditions: CAIA mice; prednisolone at high doses (group 14); combination groups 13 and 15; FIGS. 1-2
Protocol: The mAb cocktail contained three mAb (F10, A2, D8) of type IgG2a and one mAb (D1) of type IgG2b in equal amounts, directed to bovine CII (Arthrogen-CIA, Chondrex) suspended in sterile PBS. All WT mice received intraperitnoeal i.p. injections of 8 mg/mouse of Arthrogen on day 0 and 50 ug/mouse of LPS from E. coli strain 0111B4 (Sigma, T 3382) on day 3 to synchronize the development of arthritis. All mice started to develop arthritis at day 4 and were sacrificed at day 14.
Animals from group A and B were separated in some the following subgroups, depending on the assay, and administered with the indicated compounds or combination of compounds: • 1. Sham+vehicle (negative control) (n=3) • 2. Sham+prednisolone 0.05 mg/kg (n=3) • 3. Sham+prednisolone 0.05 mg/kg +MD (50 mg acacia gum (AG) +70 mg pea protein (PP)+50 mg alpha-GOS) (n=3) • 4. Sham+prednisolone 0.2 mg/kg (n=3) • 5. Sham+prednisolone 0.2 mg/kg+MD (50 mg AG+70 mg PP+50 mg alpha-GOS) (n=3) • 6. Sham+prednisolone 1 mg/kg (n=3) • 7. Sham+prednisolone 1 mg/kg+MD (50 mg AG+70 mg PP+50 mg alpha-GOS) (n=3) • 8. Sham+MD (n=3) • 9. CAIA+vehicle (positive control) (n=6) • 10. CAIA+prednisolone 0.05 mg/kg (n=6) • 11. CAIA+prednisolone 0.05 mg/kg+MD (50 mg AG+70 mg PP+50 mg alpha-GOS) (n=6) • 12. CAIA+prednisolone 0.2 mg/kg (n=6) • 13. CAIA+prednisolone 0.2 mg/kg (n=6)+MD (50 mg AG+70 mg PP+50 mg alpha-GOS) (n=6) • 14. […]

[4] = group A (dosed day 0 to day 14), subgroup 10A: prednisolone 0.05 mg/kg
[5] = group A (dosed day 0 to day 14), subgroup 12A: prednisolone 0.2 mg/kg
[6] = group A (dosed day 0 to day 14), subgroup 14A: prednisolone 1 mg/kg
[7] = group B (dosed day 4 to day 14), subgroup 10B: prednisolone 0.05 mg/kg
[8] = group B (dosed day 4 to day 14), subgroup 12B: prednisolone 0.2 mg/kg
[9] = group B (dosed day 4 to day 14), subgroup 14B: prednisolone 1 mg/kg

SMILES: C[C@]12C=CC(=O)C=C1CC[C@@H]1[C@@H]2[C@@H](O)C[C@@]2(C)[C@H]1CC[C@]2(O)C(=O)CO [prednisolone]
- Radiological score, MEAN [1, 4]: 2.3
- Radiological score, MEAN [1, 5]: 1.8
- Radiological score, MEAN [1, 6]: 1.7
- Radiological score, MEAN [1, 7]: 2.6
- Radiological score, MEAN [1, 8]: 1.9
- Radiological score, MEAN [1, 9]: 1.8
- Histological score, MEAN [2, 4]: 1.8
- Histological score, MEAN [2, 5]: 1.3
- Histological score, MEAN [2, 6]: 1.1
- Histological score, MEAN [2, 7]: 2.4
- Histological score, MEAN [2, 8]: 1.8
- Histological score, MEAN [2, 9]: 1.9
- cytokine levels (IL-17, IL-6, IL-23, TNF-α and IL-1β) in arthritic hind paws [3]: significantly reduced the expressions of the aforementioned cytokines
